Like-named read-outs stand apart in the source and are kept apart here.
Legend:
HCoV-HKU1 Mpro = HCoV-HKU1 Mpro (Human coronavirus HKU1, UniProt P0C6X2); test: HCoV-HKU1 Mpro enzymatic inhibition assay (fluorescence); assay type: biochemical
Experimental: (§1) The hCoV Mpro are cloned, expressed in E. coli and purified by WuXi AppTec Co., Ltd. The substrate are synthesized by Genscript Biotech.
(§2) Compounds are 3 fold serially diluted for 10 doses and added to an assay plate (384w format) using ECHO, in duplicate wells. The test concentration of test compounds is defined by sponsor. […] For no inhibition control (ZPE, zero percent effect), DMSO is added.
(§3) 25 μL of Mpro proteins are added to the assay plates containing compounds, respectively, using Multidrop. The compounds and Mpro proteins are pre-incubated at room temperature for 30 min. Then 5 µL of Mpro substrates are added to the related assay plates, respectively. Each activity testing point has a relevant background control to normalize the fluorescence interference of compound.
(§4) After 60 min incubation at 30° C., the fluorescence signal (RFU) is detected using a microplate reader M2e (SpectraMax) at Ex/Em=340 nm/490 nm.
(§5) The inhibition activity is calculated using the formula below, IC50 values will be calculated using the Inhibition % data.
(§6) Inhibition %=[(CPD−BGCPD)−(ZPE−BGZPE)/(HPE−BGHPE)−(ZPE−BGZPE)]×[…] • CPD: Signal of test compounds wells, containing compound+enzyme+substrate. • ZPE: Average of signals of zero percent effective control wells, containing enzyme+substrate, no compound. • HPE: Average of signals of hundred percent effect control wells, containing GC376+enzyme+substrate. • BG: Compound background control wells, containing compound+substrate, no enzyme
(§7) IC50 values of compounds are calculated with the GraphPad Prism software using the nonlinear regression model of log(inhibitor) vs. response—Variable slope (four parameters).

HCoV-OC43 Mpro = HCoV-OC43 Mpro (Human coronavirus OC43, UniProt P0C6X6); test: HCoV-OC43 Mpro enzymatic inhibition assay (fluorescence); assay type: biochemical
Experimental: as §1, §2, §3, §4, §5, §6, §7

SARS-CoV-2 Mpro = SARS-CoV-2 Mpro (Severe acute respiratory syndrome coronavirus 2, UniProt P0DTD1); test: SARS-CoV-2 Mpro enzymatic inhibition assay (fluorescence); assay type: biochemical
Experimental: as §1
Compounds are 3 fold serially diluted for 10 doses and added to an assay plate (384w format) using ECHO, in duplicate wells. The test concentration of test compounds is defined by sponsor.
25 μL of Mpro proteins are added to the assay plates containing compounds, respectively, using Multidrop. The compounds and Mpro proteins are pre-incubated at room temperature for 30 min. Then 5 µL of Mpro substrates are added to the related assay plates, respectively.
as §4, §5, §7

MERS Mpro = MERS Mpro (Middle East respiratory syndrome-related coronavirus, UniProt K9N7C7); test: biochemical; set-up: species or system MERS-CoV
HCoV-NL63 Mpro = HCoV-NL63 Mpro (Human coronavirus NL63, UniProt P0C6X5); test: HCoV-NL63 Mpro enzymatic inhibition assay (fluorescence); assay type: biochemical
Experimental: as §1, §2, §3, §4, §5, §6, §7

SARS-CoV-1 Mpro = SARS-CoV-1 Mpro (Severe acute respiratory syndrome coronavirus, UniProt P0C6X7); test: biochemical
HCoV-229E Mpro = HCoV-229E Mpro (Human coronavirus 229E, UniProt P0C6X1); test: HCoV-229E Mpro enzymatic inhibition assay (fluorescence); assay type: biochemical
Experimental: as §1, §2, §3, §4, §5, §6, §7

Sequence of HCoV-NL63 Mpro (P0C6X5 2940-3242 limits assumed): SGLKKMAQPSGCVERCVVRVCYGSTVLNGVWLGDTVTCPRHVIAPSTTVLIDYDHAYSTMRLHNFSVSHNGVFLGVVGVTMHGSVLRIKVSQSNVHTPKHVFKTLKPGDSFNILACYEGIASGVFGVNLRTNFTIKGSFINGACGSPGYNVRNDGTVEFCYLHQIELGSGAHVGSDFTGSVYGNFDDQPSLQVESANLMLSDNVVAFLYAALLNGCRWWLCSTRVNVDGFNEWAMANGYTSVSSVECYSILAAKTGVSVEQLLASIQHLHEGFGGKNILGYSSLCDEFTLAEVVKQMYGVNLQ
Sequence of MERS Mpro (K9N7C7 3248-3553 limits assumed): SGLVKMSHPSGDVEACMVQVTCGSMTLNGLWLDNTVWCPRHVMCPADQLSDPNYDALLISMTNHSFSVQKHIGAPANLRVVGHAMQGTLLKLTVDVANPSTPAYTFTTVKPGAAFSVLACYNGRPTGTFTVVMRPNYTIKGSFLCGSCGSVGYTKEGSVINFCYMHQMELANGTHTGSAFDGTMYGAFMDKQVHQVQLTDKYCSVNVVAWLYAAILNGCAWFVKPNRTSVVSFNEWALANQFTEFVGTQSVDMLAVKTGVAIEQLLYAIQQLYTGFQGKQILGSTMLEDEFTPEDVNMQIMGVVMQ
Sequence of HCoV-HKU1 Mpro (P0C6X2 3335-3637 limits assumed): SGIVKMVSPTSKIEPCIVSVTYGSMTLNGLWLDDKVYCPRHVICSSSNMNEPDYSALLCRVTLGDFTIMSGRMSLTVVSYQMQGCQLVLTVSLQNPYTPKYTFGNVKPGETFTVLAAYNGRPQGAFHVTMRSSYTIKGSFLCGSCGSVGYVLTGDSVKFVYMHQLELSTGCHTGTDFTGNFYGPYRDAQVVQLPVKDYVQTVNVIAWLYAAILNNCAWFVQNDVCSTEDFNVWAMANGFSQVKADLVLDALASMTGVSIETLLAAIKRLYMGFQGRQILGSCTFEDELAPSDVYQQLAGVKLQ
Sequence of HCoV-229E Mpro (P0C6X1 2966-3267 limits assumed): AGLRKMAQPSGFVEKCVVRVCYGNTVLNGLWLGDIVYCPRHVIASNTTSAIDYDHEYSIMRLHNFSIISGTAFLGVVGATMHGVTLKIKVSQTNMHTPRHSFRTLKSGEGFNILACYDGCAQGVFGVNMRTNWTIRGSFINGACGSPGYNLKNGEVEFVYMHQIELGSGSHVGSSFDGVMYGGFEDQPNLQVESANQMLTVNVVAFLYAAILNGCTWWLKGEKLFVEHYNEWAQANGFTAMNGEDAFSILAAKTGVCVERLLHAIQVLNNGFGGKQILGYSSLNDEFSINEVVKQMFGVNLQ
Sequence of HCoV-OC43 Mpro (P0C6X6 3247-3549 limits assumed): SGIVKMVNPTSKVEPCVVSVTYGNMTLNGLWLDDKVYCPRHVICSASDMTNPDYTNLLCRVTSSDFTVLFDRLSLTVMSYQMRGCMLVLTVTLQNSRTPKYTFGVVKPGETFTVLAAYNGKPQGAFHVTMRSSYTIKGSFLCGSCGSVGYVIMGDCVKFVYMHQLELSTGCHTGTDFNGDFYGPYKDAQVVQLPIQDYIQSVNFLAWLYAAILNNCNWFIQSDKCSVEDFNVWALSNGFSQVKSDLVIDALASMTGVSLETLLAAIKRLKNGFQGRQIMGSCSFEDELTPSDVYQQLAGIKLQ

Row | Structure (SMILES) | IC50 (HCoV-HKU1 Mpro) | IC50 (HCoV-OC43 Mpro) | IC50 (SARS-CoV-2 Mpro) | IC50 (MERS Mpro) | IC50 (HCoV-NL63 Mpro) | IC50 (SARS-CoV-1 Mpro) | IC50 (HCoV-229E Mpro) | further results
1 | CC1(C)[C@@H]2[C@@H](C(=O)N[C@H](C=O)C[C@@H]3CCNC3=O)N(C(=O)C3(c4ccccc4)CC3)C[C@@H]21 [Compound 1, (1R,2S,5S)-6,6-dimethyl-N—((S)-1-oxo-3-((S)-2-oxopyrrolidin-3-yl)propan-2-yl)-3-(1-phenylcyclopropanecarbonyl)-3-azabicyclo[3.1.0]hexane-2-carboxamide] | 11.4 nM | 28.4 nM | 9.53 nM | 129 nM | 73.7 nM | 17.3 nM | 32.4 nM | –
2 | O=C[C@H](C[C@@H]1CCNC1=O)NC(=O)[C@@H]1CC2(CC2)CN1C(=O)c1cc2cccc(Cl)c2[nH]1 [Compound 2, (S)-5-(7-chloro-1H-indole-2-carbonyl)-N—((S)-1-oxo-3-((S)-2-oxopyrrolidin-3-yl)propan-2-yl)-5-azaspiro[2.4]heptane-6-carboxamide] | 10.4 nM | 38.2 nM | 9.84 nM | 199 nM | 48.4 nM | 42.5 nM | 32.6 nM | –
3 | CC(C)(C)[C@H](NC(=O)C(F)(F)F)C(=O)N1C[C@H]2[C@@H]([C@H]1C(=O)N[C@H](C=O)C[C@@H]1CCNC1=O)C2(C)C [Compound 12, (1R,2S,5S)-3-((S)-3,3-dimethyl-2-(2,2,2-trifluoroacetamido)butanoyl)-6,6-dimethyl-N—((S)-1-oxo-3-((S)-2-oxopyrrolidin-3-yl)propan-2-yl)-3-azabicyclo[3.1.0]hexane-2-carboxamide] | 15 nM | 37 nM | – | 175 nM | 53.9 nM | 21.2 nM | 33.8 nM | –
4 | CC(C)(C)NC(=O)N[C@H](C(=O)N1C[C@H]2[C@@H]([C@H]1C(=O)N[C@@H](C[C@@H]1CCNC1=O)C(=O)C(N)=O)C2(C)C)C(C)(C)C [Compound 50, (1R, 2S, 5S)—N—((S)-4-amino-3,4-dioxo-1-((S)-2-oxopyrrolidin-3-yl)butan-2-yl)-3-((S)-2-(3-(tert-butyl)ureido)-3,3-dimethylbutanoyl)-6,6-dimethyl-3-azabicyclo[3.1.0]hexane-2-carboxamide] | 34.2 nM | 171 nM | – | 621 nM | 256 nM | 46.9 nM | 130 nM | –
5 | CC1(C)[C@@H]2[C@@H](C(=O)N[C@H](C=O)C[C@@H]3CCNC3=O)N(C(=O)CC3CCCCC3)C[C@@H]21 [Compound 54, (1R,2S,5S)-3-(2-Cyclohexylacetyl)-6,6-dimethyl-N—((S)-1-oxo-3-((S)-2-oxopyrrolidin-3-yl)propan-2-yl)-3-azabicyclo[3.1.0]hexane-2-carboxamide] | – | – | – | – | – | – | – | IC50 (HCoV-HKU1 Mpro; read-out: Mpro_HKU1 mean IC50, mean, 12.5 nM protein, 12.5 μM substrate, 30 min pre-incubation, 60 min at 30° C.): 18.8 nM; IC50 (HCoV-OC43 Mpro; read-out: Mpro_OC43 mean IC50, mean, 25 nM protein, 12.5 μM substrate, 30 min pre-incubation, 60 min at 30° C.): 56.7 nM; IC50 (MERS Mpro; read-out: Mpro_MERS mean IC50, mean, 100 nM protein, 25 μM substrate, 30 min pre-incubation, 60 min at 30° C.): 285 nM; IC50 (HCoV-NL63 Mpro; read-out: Mpro_NL63 mean IC50, mean, 50 nM protein, 12.5 μM substrate, 30 min pre-incubation, 60 min at 30° C.): 42.6 nM; IC50 (SARS-CoV-1 Mpro; read-out: Mpro_SARS-CoV-1 mean IC50, mean, 25 nM protein (SARS_Mpro), 25 μM substrate, 30 min pre-incubation, 60 min at 30° C.): 37.8 nM; IC50 (HCoV-229E Mpro; read-out: Mpro_229E mean IC50, mean, 50 nM protein, 12.5 μM substrate, 30 min pre-incubation, 60 min at 30° C.): 36.4 nM
6 | O=C[C@H](C[C@@H]1CCNC1=O)NC(=O)[C@@H]1[C@H]2CCC[C@H]2CN1C(=O)COc1ccc(Cl)cc1Cl [Compound 63, (1S,3aR,6aS)-2-(2-(2,4-Dichlorophenoxy)acetyl)-N—((S)-1-oxo-3-((S)-2-oxopyrrolidin-3-yl)propan-2-yl)octahydrocyclopenta[c]pyrrole-1-carboxamide] | 39.7 nM | 66.8 nM | – | 382 nM | 105 nM | 32.1 nM | 53.8 nM | –
7 | CC1(C)[C@@H]2[C@@H](C(=O)N[C@H](C=O)C[C@@H]3CCNC3=O)N(C(=O)c3cc4ccc(C(F)(F)F)cc4[nH]3)C[C@@H]21 [Compound 96] | – | – | 49.2 nM | – | – | – | – | –
8 | CC1(C)[C@@H]2[C@@H](C(=O)N[C@@H](C[C@@H]3CCNC3=O)C(=O)C(=O)NC3CC3)N(C(=O)C3(c4ccccc4)CCCC3)C[C@@H]21 [Compound 99, (1R,2S,5S)—N—((S)-4-(Cyclopropylamino)-3,4-dioxo-1-((S)-2-oxopyrrolidin-3-yl)butan-2-yl)-6,6-dimethyl-3-(1-phenylcyclopentanecarbonyl)-3-azabicyclo[3.1.0]hexane-2-carboxamide] | – | – | 51.4 nM | – | – | – | – | –
9 | COc1cc2[nH]c(C(=O)N3C[C@H]4[C@@H]([C@H]3C(=O)N[C@H](C=O)C[C@@H]3CCNC3=O)C4(C)C)cc2cc1F [Compound 101, (1R,2S,5S)-3-(5-Fluoro-6-methoxy-1H-indole-2-carbonyl)-6,6-dimethyl-N—((S)-1-oxo-3-((S)-2-oxopyrrolidin-3-yl)propan-2-yl)-3-azabicyclo[3.1.0]hexane-2-carboxamide] | – | – | 56.3 nM | – | – | – | – | –
10 | O=C[C@H](C[C@@H]1CCNC1=O)NC(=O)[C@@H]1C[C@H](C2CCCCC2)CN1C(=O)c1cc2ccccc2[nH]1 [Compound 103, (2S,4R)-4-cyclohexyl-1-(1H-Indole-2-carbonyl)-N—((S)-1-oxo-3-((S)-2-oxopyrrolidin-3-yl)propan-2-yl)pyrrolidine-2-carboxamide] | – | – | 63.9 nM | – | – | – | – | –
11 | CC1CCC(CC(=O)N2C[C@H]3[C@@H]([C@H]2C(=O)N[C@@H](C[C@@H]2CCNC2=O)C(=O)C(=O)NC2CC2)C3(C)C)CC1 (stereo partly drawn) [Compound 105, (1R,2S,5S)—N—((S)-4-(Cyclopropylamino)-3,4-dioxo-1-((S)-2-oxopyrrolidin-3-yl)butan-2-yl)-6,6-dimethyl-3-(2-(4-methylcyclohexyl)acetyl)-3-azabicyclo[3.1.0]hexane-2-carboxamide] | – | – | 73.2 nM | – | – | – | – | –
12 | CC(C)(C)[C@H](NC(=O)c1cc2ccccc2[nH]1)C(=O)N1C[C@H]2[C@@H]([C@H]1C(=O)N[C@@H](C[C@@H]1CCNC1=O)C(=O)C(N)=O)C2(C)C [Compound 116, N—((S)-1-((1R,2S,5S)-2-(((S)-4-amino-3,4-dioxo-1-((S)-2-oxopyrrolidin-3-yl)butan-2-yl)carbamoyl)-6,6-dimethyl-3-azabicyclo[3.1.0]hexan-3-yl)-3,3-dimethyl-1-oxobutan-2-yl)-1H-indole-2-carboxamide] | – | – | 118 nM | – | – | – | – | –
13 | CC1(C)[C@@H]2[C@@H](C(=O)N[C@H](C=O)C[C@@H]3CCNC3=O)N(C(=O)c3cc4c(F)c(Cl)ccc4[nH]3)C[C@@H]21 [Compound 117, (1R,2S,5S)-3-(5-Chloro-4-fluoro-1H-indole-2-carbonyl)-6,6-dimethyl-N—((S)-1-oxo-3-((S)-2-oxopyrrolidin-3-yl)propan-2-yl)-3-azabicyclo[3.1.0]hexane-2-carboxamide] | – | – | 126 nM | – | – | – | – | –
14 | CC1(C)[C@@H]2[C@@H](C(=O)N[C@@H](C[C@@H]3CCNC3=O)C(=O)C(=O)NC3CC3)N(C(=O)C3(c4ccccc4)CC3)C[C@@H]21 [Compound 119, (1R,2S,5S)—N—((S)-4-(cyclopropylamino)-3,4-dioxo-1-((S)-2-oxopyrrolidin-3-yl)butan-2-yl)-6,6-dimethyl-3-(1-phenylcyclopropanecarbonyl)-3-azabicyclo[3.1.0]hexane-2-carboxamide] | – | – | 143 nM | – | – | – | – | –
15 | O=C[C@H](C[C@@H]1CCNC1=O)NC(=O)[C@@H]1C[C@@H](Oc2ccccc2)CN1C(=O)c1cc2ccccc2[nH]1 [Compound 133, (2S,4R)-1-(1H-Indole-2-carbonyl)-N—((S)-1-oxo-3-((S)-2-oxopyrrolidin-3-yl)propan-2-yl)-4-phenoxypyrrolidine-2-carboxamide] | – | – | 443 nM | – | – | – | – | –
16 | O=C[C@H](C[C@@H]1CCNC1=O)NC(=O)[C@@H]1C[C@H](Oc2ccccc2)CN1C(=O)c1cc2ccccc2[nH]1 [Compound 134, (2S,4S)-1-(1H-Indole-2-carbonyl)-N—((S)-1-oxo-3-((S)-2-oxopyrrolidin-3-yl)propan-2-yl)-4-phenoxypyrrolidine-2-carboxamide] | – | – | 451 nM | – | – | – | – | –
